The source of these data is patent US9211485B2, “Method for producing crystalline active ingredient particles” (Jesalis Pharma GmbH, priority 2010, dated 2015).

What all share (format): physicochemical
Series [1] is described as follows: Particle size distribution by laser diffraction, wet measurement (Malvern Mastersizer E). As to conditions: for d50 / d90 / d10: dried product, laser diffraction wet measurement; for d50: average particle size; for d10: vol.-%; for span: span=(d90−d10)/d50. On the procedure: The particle size and the particle size distribution (grain-size distribution) are determined with the help of a customary laser diffraction in a wet measurement which delivers a distribution curve of the particle sizes (Malvern System, Mastersizer E, wet measurement in the cuvette). dx means that x volume percent (vol.-%) of the particles have a diameter which is smaller than the given value. With a d50 value of 1 μm 50 vol.-% of the particles thus have a diameter of less than 1 μm (micrometer). The d50 value is a measure of the average (volume average) particle diameter and is therefore also called average particle diameter. With a d10 of 15 μm and a d90 of 50 μm 10 vol.-% of the particles have a diameter of less than 15 μm and 90 vol.-% of the particles have a diameter of less than 50 μm.
Sample preparation for wet measurement of the particle size and particle size distribution: 12.5 mg sample is dispersed in 25 ml aqueous surfactant solution (0.1% Tween 80 in water, saturated with active ingredient and filtered over a 0.2 μm filter) by means of ultrasound sonotrode (Hielscher, d=7 mm, 30% output) for 4 min. The thus-obtained suspension is added dropwise, accompanied by stirring, to the measuring vessel which contains filtered surfactant solution, until the obscuration (clouding) reaches 10% and the particle size distribution is determined by the above-described laser diffraction. An average value is determined from five measurements.
An advantage of the method according to embodiments of the invention is the generation of a very narrow particle size distribution. Additionally, largely agglomerate-free particles are obtained. This is achieved by the synchronous counterrotation of destructive grinding and ultrasound processes on the one hand and constructive crystal growth on the other hand. In the region of coarse grain sizes and agglomerates, above all the disintegration effect (grinding process and ultrasound) acts primarily in the direction of a reduction, and in the fine-grain region the crystal growth acts in the direction of an increase in the particle size. Thus, very narrow particle size distributions are achieved. The width of a particle size distribution (span) is defined as follows: span=(d90−d10)/d50.

Series [2] can be described thus: Agglomeration factor: d90 (Ultra Turrax stirrer) / d90 (ultrasound sonotrode). Conditions: d90(agglomerated particles)/d90(non-agglomerated particles). From the text: The degree of agglomeration of the crystallized active ingredient particles is described by the agglomeration factor (AGF). This is defined by the quotient of the diameter of the agglomerated particles and of the diameter of the non-agglomerated particles. This method is most informative for agglomeration when comparing the d90 values. The agglomeration factor within the meaning of the present invention is therefore defined as follows: Agglomeration factor=d90(agglomerated particles)/d90(non-agglomerated particles)
These two d90 values are determined by different energy input into the sample to be tested.
With a high input of energy, existing agglomerates decompose and the following particle size measurement delivers the d90 of the non-agglomerated particles. […]
With a low energy input on the other hand agglomerates are largely spared and the following particle size measurement delivers the d90(agglomerated particles). […] The thus-obtained suspension is added dropwise accompanied by stirring to the measuring vessel which contains filtered surfactant solution, until the obscuration reaches 10% and the particle size distribution is determined by the above-described laser diffraction. An average value is determined from five measurements. […]

Series [3] in a line: Crystallinity by X-ray powder diffractometry (XRPD) relative to a reference material. Conditions: relative to reference sample. On the procedure: The crystallinity is determined by means of X-ray powder diffractometry (XRPD) (apparatus: Siemens D8, fixed sample position). After background correction the integral intensities in the X-ray diffractogram are compared with those of a reference material. This reference material can for example be a conventional precipitation product or a product according to a different production method with known crystallinity and granulation. Thus the crystallinity is a relative value which characterizes the degree of order compared with a reference sample. The relationship of the integral reflex intensities of particle sample and reference sample is therefore the quantitative expression of its difference in crystallinity.

Regarding `CC(=O)[C@H]1CC[C@H]2[C@@H]3CCC4=CC(=O)CC[C@]4(C)[C@H]3CC[C@]12C` [Example 2, progesterone], in series [1], the d50 was found to be 26 μm, the d90 was 45 μm, the d10 is reported as 10 μm and the span was 1.3. Besides, the “AGF (agglomeration factor)” value in series [2] is 1.1. The crystallinity in series [3] was found to be 100%.

In series [1], `CC(=O)[C@H]1CC[C@H]2[C@@H]3CCC4=CC(=O)CC[C@]4(C)[C@H]3CC[C@]12C` [Example 1, progesterone] returned a d50 of 34 μm, a d90 of 64 μm, a d10 of 12 μm and a span of 1.5. In addition, the “AGF (agglomeration factor)” value in series [2] was found to be 1.3. Moreover, the crystallinity in series [3] was 100%.
